Assay results reported in patent US6608004B2, “Substituted 2-aryl-1,2,4-triazine-3,5-di(thi)ones” (priority 1999, dated 2003).
Where two headings read alike, the source gives them in different places.

Key:
[1] = logP determination by HPLC, reversed-phase column (C 18), EEC Directive 79/831 Annex V.A8
Text: (a) Mobile phases for the determination in the acidic range: 0.1% aqueous phosphoric acid, acetonitrile; linear gradient from 10% acetonitrile to 90% acetonitrile—the corresponding measurement results are labelled in Table 1 with ^a).
(b) Mobile phases for the determination in the neutral range: 0.01 molar aqueous phosphate buffer solution, acetonitrile; linear gradient from 10% acetonitrile to 90% acetonitrile—the corresponding measurement results are labelled in Table 1 with ^b).

[2] = system: weeds; assay: Post-Emergence Test (Example B), activity against weeds; format: in vivo; conditions: test plants of a height of 5-15 cm sprayed, rated after three weeks
Text: (§1) Solvent: 5 parts by weight of acetone
(§2) Emulsifier: 1 part by weight of alkylaryl polyglycol ether
(§3) After three weeks, the degree of damage to the plants is rated in % damage in comparison to the development of the untreated control.

[3] = system: crop plants, such as, for example, barley and wheat; assay: Post-Emergence Test (Example B), tolerance by crop plants
Text: as §1, §2, §3

[4] = system: weeds; assay: Pre-Emergence Test (Example A), activity against weeds; format: in vivo; conditions: soil sprayed about 24 hours after sowing, rated after three weeks
Text: as §1, §2
(§4) Seeds of the test plants are sown in normal soil.
0%=no effect (like untreated control)

[5] = system: crop plants, such as, for example, barley, wheat, rapeseed, soya and sugar beet; assay: Pre-Emergence Test (Example A), tolerance by crop plants; format: in vivo
Text: as §1, §2, §4

[6] = a) acidic range: 0.1% aqueous phosphoric acid, acetonitrile gradient, HPLC C 18, 43° C.
[7] = pre-emergence, barley, wheat, rapeseed, soya and sugar beet, rated after three weeks

SMILES	logP a) [1]	activity against weeds (degree of damage) [2]	tolerance by crop plants ([3]; in vivo)	activity against weeds (degree of damage) [4]	tolerance by crop plants ([5]; in vivo)	also measured
CCS(=O)(=O)N(C(=O)C1CCc2ccccc2O1)c1cc(-n2ncc(=O)n(C)c2=O)c(F)cc1C#N (racemic) [Example 38]	m.p.: 115 °C logP = 2.93^a)	–	–	–	–	–
CCS(=O)(=O)N(C(=O)CCCCl)c1cc(-n2ncc(=O)n(C)c2=O)c(F)cc1C#N [Example 27]	logP = 2.43^a)	very strong activity	essentially being tolerated well	very strong activity	essentially being tolerated well	–
CCS(=O)(=O)N(C(=O)CC(C)(C)C)c1cc(-n2ncc(=O)n(C)c2=O)c(F)cc1C#N [Example 19]	logP = 2.94^a)	very strong activity	essentially being tolerated well	very strong activity	essentially being tolerated well	–
CCS(=O)(=O)N(C(=O)COc1ccccc1Cl)c1cc(-n2ncc(=O)n(C)c2=O)c(F)cc1C#N [Example 35]	m.p.: 220 °C logP = 2.89^a)	very strong activity	essentially being tolerated well	very strong activity	essentially being tolerated well	–
C=CC(=O)N(c1cc(-n2ncc(=O)n(CCF)c2=O)c(F)cc1C#N)S(=O)(=O)CCC [Example 64]	–	–	–	–	–	logP a) [1, 6]: m.p.: 142 °C logP = 2.46^a)
CCS(=O)(=O)N(C(=O)Cc1ccc(OC)cc1)c1cc(-n2ncc(=O)n(C)c2=O)c(F)cc1C#N [Example 45]	m.p.: 221 °C logP = 2.58^a)	very strong activity	essentially being tolerated well	very strong activity	essentially being tolerated well	–
CCS(=O)(=O)N(C(=O)CCCCCl)c1cc(-n2ncc(=O)n(C)c2=O)c(F)cc1C#N [Example 22]	logP = 2.65^a)	very strong activity	essentially being tolerated well	very strong activity	essentially being tolerated well	–
CCS(=O)(=O)N(C(=O)c1snnc1C)c1cc(-n2ncc(=O)n(C)c2=O)c(F)cc1C#N [Example 68]	m.p.: 189 °C logP = 1.73^a)	–	–	–	–	–
CCCCC(CC)C(=O)N(c1cc(-n2ncc(=O)n(C)c2=O)c(F)cc1C#N)S(=O)(=O)CC (racemic) [Example 7]	m.p.: 140 °C logP = 3.53^a)	very strong activity	essentially being tolerated well	very strong activity	essentially being tolerated well	–
CCS(=O)(=O)N(C(=O)C1CCCCC1)c1cc(-n2ncc(=O)n(C)c2=O)c(F)cc1C#N [Example 16]	–	very strong activity	–	very strong activity	–	tolerance by crop plants ([3]; post-emergence, barley and wheat, rated after three weeks): essentially being tolerated well; tolerance by crop plants [5, 7]: essentially being tolerated well; logP a) [1, 6]: m.p.: 182 °C logP = 2.46^a)
CCS(=O)(=O)N(C(=O)CCCc1ccc(OC)cc1)c1cc(-n2ncc(=O)n(C)c2=O)c(F)cc1C#N [Example 76]	logP = 3.03^a)	–	–	–	–	–
CCS(=O)(=O)N(C(=O)Cc1ccc(F)cc1F)c1cc(-n2ncc(=O)n(C)c2=O)c(F)cc1C#N [Example 36]	m.p.: 210 °C logP = 2.73^a)	very strong activity	essentially being tolerated well	very strong activity	essentially being tolerated well	–
CCS(=O)(=O)N(C(=O)/C=C/c1ccc2c(c1)OCO2)c1cc(-n2ncc(=O)n(C)c2=O)c(F)cc1C#N [Example 77]	–	–	–	–	–	logP a) [1, 6]: m.p.: 141 °C logP = 2.72^a)
CCS(=O)(=O)N(C(=O)c1ccc(OC)cc1)c1cc(-n2ncc(=O)n(C)c2=O)c(F)cc1C#N [Example 11]	m.p.: 94 °C logP = 2.77^a)	–	–	very strong activity	–	tolerance by crop plants [5, 7]: essentially being tolerated well
CCS(=O)(=O)N(C(=O)CCCBr)c1cc(-n2ncc(=O)n(C)c2=O)c(F)cc1C#N [Example 30]	logP = 2.51^a)	very strong activity	essentially being tolerated well	very strong activity	essentially being tolerated well	–
CCS(=O)(=O)N(C(=O)CCC1CCCC1)c1cc(-n2ncc(=O)n(C)c2=O)c(F)cc1C#N [Example 46]	m.p.: 143 °C logP = 3.34^a)	very strong activity	essentially being tolerated well	very strong activity	essentially being tolerated well	–
CCS(=O)(=O)N(C(=O)COc1ccccc1)c1cc(-n2ncc(=O)n(C)c2=O)c(F)cc1C#N [Example 43]	m.p.: 222 °C logP = 2.96^a)	very strong activity	essentially being tolerated well	very strong activity	essentially being tolerated well	–
C=CC(=O)N(c1cc(-n2ncc(=O)n(CCF)c2=O)c(F)cc1C#N)S(C)(=O)=O [Example 62]	–	–	–	–	–	logP a) [1, 6]: m.p.: 142 °C logP = 1.93^a)
CCS(=O)(=O)N(C(=O)Cc1cccc(OC)c1)c1cc(-n2ncc(=O)n(C)c2=O)c(F)cc1C#N [Example 82]	m.p.: 158 °C logP = 2.63^a)	–	–	–	–	–
CCS(=O)(=O)N(C(=O)c1cn(C)nc1C(F)(F)F)c1cc(-n2ncc(=O)n(C)c2=O)c(F)cc1C#N [Example 67]	m.p.: 199 °C logP = 2.54^a)	–	–	–	–	–
CCS(=O)(=O)N(C(=O)N1CCCC1)c1cc(-n2ncc(=O)n(C)c2=O)c(F)cc1C#N [Example 69]	m.p.: 192 °C logP = 2.05^a)	–	–	–	–	–
CCS(=O)(=O)N(C(=O)C(C)c1c(Cl)cccc1Cl)c1cc(-n2ncc(=O)n(C)c2=O)c(F)cc1C#N (racemic) [Example 34]	–	–	–	–	–	logP a) [1, 6]: m.p.: 159 °C logP = 3.07^a)
C/C=C/C(=O)N(c1cc(-n2ncc(=O)n(CCF)c2=O)c(F)cc1C#N)S(C)(=O)=O [Example 63]	–	–	–	–	–	logP a) [1, 6]: m.p.: 85 °C logP = 2.12^a)
C=CC(=O)N(c1cc(-n2ncc(=O)n(CCF)c2=O)c(F)cc1C#N)S(=O)(=O)CC [Example 65]	–	–	–	–	–	logP a) [1, 6]: m.p.: 83 °C logP = 2.14^a)
CCS(=O)(=O)N(C(=O)N(C(C)C)C(C)C)c1cc(-n2ncc(=O)n(C)c2=O)c(F)cc1C#N [Example 71]	m.p.: 188 °C logP = 2.92^a)	–	–	–	–	–
CCS(=O)(=O)N(C(=O)Oc1ccc(F)cc1)c1cc(-n2ncc(=O)n(C)c2=O)c(F)cc1C#N [Example 74]	m.p.: 202 °C logP = 2.85^a)	–	–	–	–	–
CCS(=O)(=O)N(C(=O)Cc1cc(OC)ccc1OC)c1cc(-n2ncc(=O)n(C)c2=O)c(F)cc1C#N [Example 81]	m.p.: 192 °C logP = 2.66^a)	–	–	–	–	–
CCS(=O)(=O)N(C(=O)CC(c1ccccc1)c1ccccc1)c1cc(-n2ncc(=O)n(C)c2=O)c(F)cc1C#N [Example 78]	m.p.: 183 °C logP = 3.48^a)	–	–	–	–	–
CCS(=O)(=O)N(C(=O)Cc1ccccc1OC)c1cc(-n2ncc(=O)n(C)c2=O)c(F)cc1C#N [Example 80]	m.p.: 140 °C logP = 2.70^a)	–	–	–	–	–
